# Laboratory results: patent publication US12617818B2, “Compositions and methods for modulating myosin subfragment-2 coiled coil stability and methods for using them” (UNIVERSITY OF NORTH TEXAS, priority 2020, dated 2026)
# Columns and labels:
# [1] = molecular target: T1, cardiac muscle myosin S2 peptide E930del (MYH7 E930del) (Homo sapiens, UniProt P12883, DEL931-931); assay: GFS, uncoiling of E930del cardiac myosin S2 peptide dimer; type: biochemical; conditions: length 10 nm; in presence of stabilizer; ± SEM
# T1 construct: host or cells: chemical synthesis
# T1 sequence (P12883 with tags, fused parts or gaps DEL931-931): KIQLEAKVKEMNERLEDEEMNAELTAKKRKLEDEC
# Excerpt: 3-aminopropyltriethoxysilane, acetone, coupling buffer (0.01 M pyridine in water with pH 6.0), 5% glutaraldehyde, quenching solution (1 M glycine in water with pH 7.0), blocking buffer (0.01 M Tris, 0.1% sodium azide, 0.1% bovine serum albumin, 0.15 M sodium chloride, and 0.001 M ethylenediaminetetraacetic acid with pH 7.0), wash buffer (0.01 M Tris, 0.1% sodium azide, 0.15 M sodium chloride, and 0.001 M ethylenediaminetetraacetic acid with pH 7.0) low salt buffer (0.1 M potassium chloride, 0.02 M imidazole, 5 mM magnesium chloride, with pH 7.0), 1-ethyl-3-(3-dimethyaminopropyl) carbodiimide, N-hydroxysuccinamide, iodoacetamide-succinimidyl ester, 8M urea solution (50 mM imidazole and 0.1 mM tris (2-carboxyethyl) phosphine with pH 7.0) monodisperse silica beads, glass slides, glass coverslips, vacuum grease, rabbit skeletal myosin, purified actin (G-actin), 1 μM human β-cardiac myosin S2 peptide, 1 μM human β-cardiac mutants myosin S2 peptide (E930del and E924K), 1 μM human skeletal myosin S2 peptide, 1 μM human smooth myosin S2 peptide, stabilizer peptide, and destabilizer peptide. A light microscope with an objective lens of 10× was mounted on an alt-azimuthal mount. A digital video camera of Sony, XCD-V60 was replaced with the ocular lenses. Extension springs on steel bracket held the alt-azimuthal mount suspended.
# Gravitational force spectroscopy (GFS), is a single molecule force spectroscopy that utilizes gravitational force to measure absolute length of a single molecule at the given force calculated by the density of the bead suspending the molecule. This technique was discovered and developed in Root lab, which measures the forces in piconewton and sub-piconewton levels. Other than absolute length of a molecule, GFS measures force range required to uncoil, stretch or extend the molecule yielding a force-distance profile for the suspended molecule. Besides that, based on the force-distance profile, number of amino acids within the molecule can be calculated. […] The GFS allowed to test the flexibility or stability of a single molecule of myosin S2 peptide and also for the S2 peptides treated with anti-S2 peptides. Flexibility of myosin S2 is not dependent on assembly myosin as a thick filament or myosin in its single molecule form. […]
# Free fall mode, another measurement variant of GFS which allows the user to get a force distance profile on a single molecule experiencing the gravitational force. […] During the free fall mode, GFS has a single molecule which is suspended within an immobile edge and mobile bead will now experience the variable force which would be calculated by the product of mass of the bead and the acceleration of the GFS. […]
# [2] = test system: human cardiac myosin S2 peptide; assay: Competitive ELISA (cELISA) against polyclonal anti-S2 antibody; type: binding; conditions: low-high-low OD trend
# Experimental: Phosphate buffer saline (PBS) contained 0.14 M sodium chloride, 2.7 mM potassium chloride, 1.5 mM potassium phosphate monobasic, and 8.1 mM sodium phosphate dibasic with pH 7.4. Detergent buffer was made with 0.05% triton X-100 in PBS, blocking buffer was made with 3% powdered milk in detergent buffer. Assay buffer contained 100 mM potassium phosphate dibasic, 100 mM potassium phosphate monobasic, 1 M potassium chloride and 10 mM magnesium chloride with pH 7.0. Stocks of primary antibody (polyclonal antibody anti-S2), rabbit skeletal myosin, human cardiac myosin S2 peptide, stabilizer and destabilizer peptide. Secondary antibody conjugated with alkaline phosphatase was anti-guinea pig immunoglobulin G (IgG)-alkaline phosphatase (Sigma-Aldrich, catalog number A5062) produced in goat and isolated by affinity chromatography. Substrate was 5-Bromo-4-chloro-3-indolyl phosphate (BCIP) tablets dissolved in 10 ml of distilled water per tablet and 96 well microtiter plate.
# Competitive Enzyme Linked Immunosorbent Assay (cELISA) is a classical immunochemical test to validate the binding efficiency and specificity in lower molar concentrations (Yorde et al., 1976; Voller et al., 1978; Walker, J. M. 1996). In this assay the polyclonal antibody anti-S2 raised against single alpha helix of myosin S2 would be used to compete with stabilizer or destabilizer peptide to bind myosin S2 in rabbit skeletal myosin molecule as well as small human cardiac myosin S2 peptide. This cELISA, thus have two molecules polyclonal anti-S2 and stabilizer peptide which have two binding sites one on rabbit skeletal myosin and the other one being on small human cardiac myosin S2. Since both polyclonal anti-S2 and stabilizer peptide were designed against human β-cardiac myosin S2 they both would have a stronger affinity towards the smaller human β-cardiac myosin S2 peptide against the myosin S2 on rabbit skeletal myosin.
# To test the binding specificity and efficiency of stabilizer or destabilizer peptide the following setup was used. Start of the setup would be to coat the wells with rabbit skeletal myosin molecule and add appropriate amount human cardiac myosin S2 peptide that would bind the primary polyclonal anti-S2 antibody and when washed there won't be enough primary polyclonal anti-S2 antibody to bind myosin S2 of rabbit skeletal myosin adsorbed on the wells. When alkaline phosphatase conjugated secondary antibody is added on to the wells, it won't have enough or none primary polyclonal anti-S2 antibody to bind. After addition of color developing BCIP substrate to the wells it would lead to low or no color development leading to lower optical density (OD). […]
smiles,measurement,setting,value
C[C@H](NC(=O)[C@H](CCCCN)NC(=O)[C@H](Cc1ccccc1)NC(=O)[C@H](CCCCN)NC(=O)[C@H](CCCCN)NC(=O)[C@H](CCCCN)NC(=O)[C@H](CCCCN)NC(=O)[C@H](CCCCN)NC(=O)[C@H](CCCCN)NC(=O)[C@H](CCCCN)NC(=O)[C@@H](N)CCCCN)C(=O)N[C@@H](CCCCN)C(=O)N[C@@H](CCCCN)C(=O)N[C@@H](CCCCN)C(=O)N[C@@H](CCCCN)C(=O)N[C@@H](CCCCN)C(=O)N[C@@H](CCCCN)C(=O)O [Stabilizer],Force required to uncoil S2 molecule,[1],1.07E+00 ± 8.28E−02 pN
CSCC[C@H](NC(=O)[C@H](CCC(=O)O)NC(=O)[C@H](CCCNC(=N)N)NC(=O)[C@H](CCC(=O)O)NC(=O)[C@H](CC(=O)O)NC(=O)[C@H](CCC(=O)O)NC(=O)[C@H](CC(C)C)NC(=O)[C@H](CCCNC(=N)N)NC(=O)[C@H](CCC(=O)O)NC(=O)[C@H](CC(N)=O)NC(=O)[C@H](CCSC)NC(=O)[C@@H](N)CCC(=O)O)C(=O)N[C@@H](CCCCN)C(=O)N[C@@H](C)C(=O)N[C@@H](CCC(=O)O)C(=O)N[C@@H](CC(C)C)C(=O)N[C@H](C(=O)N[C@@H](C)C(=O)N[C@@H](CCCCN)C(=O)O)[C@@H](C)O [Destabilizer],cross specificity to human cardiac myosin S2 and rabbit skeletal myosin S2,[2],cross specific
